Assay results as given in patent US20240197869A1, “HYPERACTIVATORS OF MAMMALIAN DENDRITIC CELLS” (Corner Therapeutics, Inc., priority 2021, published 2024).

Experiments:
[1] = system: human monocyte-derived dendritic cells (moDCs); test: DAMP screen: IL-1β secretion by LPS-activated human moDCs (ELISA); type: cell-based
human moDC = test: IL-1β secretion by human moDC with surfactant formulations of 22:0 Lyso PC; type: cell-based
Experimental: Formulation of 22:0 Lyso PC with poloxamers. […] 22:0 Lyso PC was resuspended in the surfactant solution and agitated at 4° C. for an hour. Solutions were then brought to room temperature to form micelles. Using 10× concentrated PBS, salts were added to the solution to stabilize molecular interactions and provide physiologically relevant osmolarity. Lipid solutions were either left unfiltered or filtered through a pore size of 0.45 um to remove insoluble lipid flakes. Lipids were further diluted and added onto human moDC cell cultures along with 1 ug/mL R848. Targeted lipid concentrations were based on the scenario where the lipid is fully bio-available prior to filtration. However, filtration of insoluble lipid reduces the bio-available supply of lipid. Thus, IL-1beta as a measure of hyperactivity can be used as an indicator of 22:0 Lyso PC incorporation into micelles and thus into solution. One day after hyperactivation, cell culture supernatants are collected to measure cytokine secretion, and cells are used to measure viability via Cell Titer-Glo.
Salts are added to the solution to stabilize the molecular interactions and bring the solution to a physiologically relevant osmolarity. The solutions are then either left unfiltered or filtered through a pore size of 0.45 um to remove insoluble lipid flakes or particle aggregates. Lipids are then added to human moDC cultures with 1 ug/mL R848. One day after hyperactivation, cell culture supernatants were collected to measure cytokine secretion, and cells were used to measure cell viability.
Data from these studies in poloxamer formulation are shown from one human moDC donor sample. Individual data points represent the mean of triplicates.

Structure (SMILES): CCCCCCCCCCCCCCCCCCCCCC(=O)OC[C@@H](O)COP(=O)([O-])OCC[N+](C)(C)C [22:0 LYSO PC, 1-behenoyl-2-hydroxy-sn-glycero-3-phosphocholine]
- IL-1β secretion ([1]; 41.3 μM lipid + LPS 1 μg/mL, 2 days, Table 1-2): 1904.2 pg/mL
- IL-1β secretion ([1]; 82.5 μM lipid + LPS, selected lipids, Table 1-3 (repeats Table 1-1)): 2130.9 pg/mL
- IL-1beta secretion, effect of 0.45 um filtration (in words) (human moDC; filtered vs unfiltered lipid + R848): significantly decreased the IL-1beta secreted by moDC
- IL-1beta secretion (in words) (human moDC; methanol or ethanol solvent evaporation with KP407, filtered, target 82.5 uM + R848): further increased
- IL-1beta secretion (in words) (human moDC; mixed with KP407 (5% in PBS), 0.45 um filtered, target 82.5 uM + R848): increased IL-1beta secretion
- IL-1beta secretion (in words) (human moDC; not incorporated into KP407 micelles, 0.45 um filtered, target 82.5 uM + R848): minimal amounts of IL-1beta
- IL-1beta secretion (in words) (human moDC; surfactant formulations left unfiltered + R848): high IL-1beta secretion
